Data published in ChEMBL document CHEMBL4808242, “Discovery of GNE-502 as an orally bioavailable and potent degrader for estrogen receptor positive breast cancer” (Bioorg Med Chem Lett, 2021).
In brackets after ≈: the same amount, converted by molar mass. Activity calls are given as the source filed them. The calls are words filed in the database; no cut-off is given here.

Key:
[1] = Kinetic solubility of compound at pH 7.4; format: physicochemical; details: buffer, read-out: Kinetic_solubility
[2] = target: T1, Estrogen receptor (Homo sapiens) (UniProt P03372); assay: Induction of ERalpha degradation in human MCF7 cells assessed as maximum degradation by immunofluorescence assay relative to control; format: cell-based
T1 sequence (whole entry): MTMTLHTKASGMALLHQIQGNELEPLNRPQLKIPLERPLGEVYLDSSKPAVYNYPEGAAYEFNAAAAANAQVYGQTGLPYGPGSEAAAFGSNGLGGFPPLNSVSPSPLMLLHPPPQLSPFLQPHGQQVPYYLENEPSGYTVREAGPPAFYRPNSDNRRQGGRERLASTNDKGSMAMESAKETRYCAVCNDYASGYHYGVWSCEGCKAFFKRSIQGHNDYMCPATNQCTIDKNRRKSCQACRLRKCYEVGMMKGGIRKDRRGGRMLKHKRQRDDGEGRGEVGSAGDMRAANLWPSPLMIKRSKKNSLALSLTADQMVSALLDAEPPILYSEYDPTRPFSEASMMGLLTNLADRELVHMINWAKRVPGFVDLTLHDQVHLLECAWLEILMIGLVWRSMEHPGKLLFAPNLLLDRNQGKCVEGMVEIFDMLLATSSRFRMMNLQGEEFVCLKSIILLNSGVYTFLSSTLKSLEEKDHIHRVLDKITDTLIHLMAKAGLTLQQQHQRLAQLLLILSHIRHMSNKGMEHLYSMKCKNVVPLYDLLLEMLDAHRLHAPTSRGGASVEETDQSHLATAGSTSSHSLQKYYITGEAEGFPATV

Estrogen receptor [3] = target: T2, Estrogen receptor (Homo sapiens, UniProt P03372); assay: Induction of ERalpha degradation in human MCF7 cells by immunofluorescence assay; format: cell-based
T2 sequence (P03372 whole entry): T1 sequence (whole entry)

[4] = Distribution coefficient, logD of the compound at pH 7.4; details: octanol/water
MCF7 [5] = assay: Antitumor activity against human MCF7 cells xenografted in mouse assessed as tumor growth inhibition at 60 mg/kg, po QD for 4 weeks; format: functional, organism-based
[6] = tested on: Estrogen receptor (Homo sapiens), P03372 [Y537S]; assay: Induction of ERalpha Y537S mutant degradation expressed in human MCF7 cells assessed as maximum degradation by immunofluorescence assay relative to control; format: cell-based
Estrogen receptor (Homo sapiens), P03372 [Y537S], sequence (P03372 whole entry Y537S): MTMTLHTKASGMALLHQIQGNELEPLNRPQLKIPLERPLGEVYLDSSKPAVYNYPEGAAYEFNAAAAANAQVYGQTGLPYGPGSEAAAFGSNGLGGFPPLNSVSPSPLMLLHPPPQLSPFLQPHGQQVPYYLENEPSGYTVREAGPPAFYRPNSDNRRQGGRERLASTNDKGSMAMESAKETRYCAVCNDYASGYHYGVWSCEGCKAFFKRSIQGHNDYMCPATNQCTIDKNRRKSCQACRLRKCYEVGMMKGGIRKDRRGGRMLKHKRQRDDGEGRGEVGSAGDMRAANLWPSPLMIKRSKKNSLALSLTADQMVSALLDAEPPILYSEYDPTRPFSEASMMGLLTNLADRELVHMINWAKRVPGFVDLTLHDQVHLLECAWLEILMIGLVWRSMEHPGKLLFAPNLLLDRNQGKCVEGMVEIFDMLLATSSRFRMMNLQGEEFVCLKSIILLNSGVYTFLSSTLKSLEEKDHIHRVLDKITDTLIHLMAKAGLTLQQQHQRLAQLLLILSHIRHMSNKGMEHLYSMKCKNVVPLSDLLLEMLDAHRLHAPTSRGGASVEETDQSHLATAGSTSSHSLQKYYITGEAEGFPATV

[7] = Clearance in rat at 1 mg/kg, iv; format: ADME, organism-based; details: in vivo
[8] = Volume of distribution at steady state in rat; format: ADME; details: in vivo, read-out: Vdss
[9] = Apparent permeability across basolateral to apical side in MDCK cells; format: ADME, cell-based, Canis lupus familiaris; details: dog
in vitro = details: dog, MDCK
MCF7 [10] = assay: Antiproliferation activity against human MCF7 cells assessed as reduction in cell viability measured by CellTiter-Glo luminescent assay; format: functional, cell-based
[11] = Oral bioavailability in rat; format: ADME, organism-based; details: in vivo
[12] = Half life in rat; format: ADME; details: in vivo
Estrogen receptor [13] = target: T2, Estrogen receptor; assay: Displacement of fluorescein PGC1alpha from recombinant ERalpha (unknown origin)
[14] = Toxicity in mouse xenografted with human MCF7 cells assessed as body weight loss at 1 to 100 mg/kg, po administered for 4 weeks; format: organism-based; details: in vivo, 672 h, dose 1-100 mg/kg
[15] = AUC in mouse at 10 mg/kg, po; format: ADME, organism-based; set-up: dose 10 mg/kg; details: in vivo
MCF7 [16] = assay: Antitumor activity against human MCF7 cells xenografted in mouse assessed as tumor growth inhibition at 100 mg/kg, po measured after 4 weeks; format: functional, organism-based
[17] = AUC in mouse at 100 mg/kg, po; format: ADME, organism-based; set-up: dose 100 mg/kg; details: in vivo
MCF7 [18] = assay: Antitumor activity against human MCF7 cells xenografted in po dosed mouse assessed as tumor growth inhibition measured after 4 weeks; format: functional, organism-based; details: dose 10-100 mg/kg
Estrogen receptor [19] = target: Estrogen receptor (Homo sapiens, UniProt P03372, Y537S); assay: Induction of ERalpha Y537S mutant degradation expressed in human MCF7 cells by immunofluorescence assay; format: cell-based
Estrogen receptor (Homo sapiens, UniProt P03372, Y537S), sequence (P03372 whole entry Y537S): as above

[20] = Protein binding in human plasma assessed as unbound fraction; format: ADME, cell-free

Compound	solubility kinetic [1] [µM]	%max [2] [%]	DC50 (Estrogen receptor [3]) [nM]	logD [4]	other results
C[C@@H]1Cc2c([nH]c3ccccc23)[C@@H](c2c(F)cc(OCCN3CC(CF)C3)cc2F)N1C(=O)[C@@H](C)CF	115 (≈ 59.5 µg/mL)	98	0.34	2.5	–
C[C@@H]1Cc2c([nH]c3ccccc23)[C@@H](c2c(F)cc(OCCN3CC(CF)C3)cc2F)N1C(=O)C1CNC1	96 (≈ 49.2 µg/mL)	–	> 10	-0.2	–
C[C@@H]1Cc2c([nH]c3ccccc23)[C@@H](c2c(F)cc(OC3CN(CCCF)C3)cc2F)N1C(=O)C1(F)CCC1	< 1	96	1.2	4.3	–
CC/C(=C(\c1ccccc1)c1ccc(OCCN(C)C)cc1)c1ccccc1	–	–	–	–	Activity (MCF7 [5]): Active
CC(CO)C(=O)N1[C@H](c2c(F)cc(OCCN3CC(CF)C3)cc2F)c2[nH]c3ccccc3c2C[C@H]1C (some centres undefined)	156 (≈ 80.4 µg/mL)	91	4	1.8	–
C[C@@H]1Cc2c([nH]c3ccccc23)[C@@H](c2ccc(OCCN3CC(CF)C3)cc2F)N1S(C)(=O)=O	135 (≈ 66.1 µg/mL)	93	0.19	2.5	IC50 (Estrogen receptor [13]): 17 nM; clearance [7]: 10.2 mL/min/kg; Vd [8]: 9.6 L/kg; Papp B→A [9]: 5 ×10⁻⁶ cm/s; Papp A→B (in vitro): 4 ×10⁻⁶ cm/s; IC50 (MCF7 [10]): 0.4 nM; bioavailability [11]: 48%; half-life [12]: 11 h
C[C@@H]1Cc2c([nH]c3ccccc23)[C@@H](c2c(F)cc(OC3CN(CCCF)C3)cc2F)N1C(=O)C1(F)CC1	13 (≈ 6.7 µg/mL)	95	0.32	4.1	–
CC(C)C(=O)N1[C@H](c2c(F)cc(OCCN3CC(CF)C3)cc2F)c2[nH]c3ccccc3c2C[C@H]1C	135 (≈ 67.4 µg/mL)	95	0.11	–	–
C[C@@H]1Cc2c([nH]c3ccccc23)[C@@H](c2c(F)cc(OC3CN(CCCF)C3)cc2F)N1CC(C)(C)F	< 1	100	–	–	fraction unbound [20]: < 0.001; Papp B→A [9]: 0.2 ×10⁻⁶ cm/s; Papp A→B (in vitro): 0.4 ×10⁻⁶ cm/s
C[C@@H]1Cc2c([nH]c3ccccc23)[C@@H](c2c(F)cc(OC3CN(CCCF)C3)cc2F)N1C(=O)C(C)(C)F	< 1	100	0.42	4	–

The next lines start with results.

solubility kinetic [1] [µM]	%max [2] [%]	DC50 (Estrogen receptor [3]) [nM]	logD [4]	Compound	other results
92 (≈ 47.3 µg/mL)	90	0.49	3.3	C[C@@H]1Cc2c([nH]c3ccccc23)[C@@H](c2c(F)cc(OCCN3CC(CF)C3)cc2F)N1C(=O)C(C)(C)C	–
102 (≈ 52.8 µg/mL)	96	0.4	2.5	C[C@H](CF)C(=O)N1[C@H](c2c(F)cc(OCCN3CC(CF)C3)cc2F)c2[nH]c3ccccc3c2C[C@H]1C	–
111 (≈ 56.8 µg/mL)	95	5	3.1	C[C@@H]1Cc2c([nH]c3ccccc23)[C@@H](c2c(F)cc(OCCN3CC(CF)C3)cc2F)N1C(=O)CC1CC1	–
181 (≈ 90.1 µg/mL)	89	3	2.1	C[C@@H]1Cc2c([nH]c3ccccc23)[C@@H](c2c(F)cc(OCCN3CC(CF)C3)cc2F)N1C(=O)C1CC1	–
113 (≈ 57.4 µg/mL)	93	–	2.3	C[C@@H]1Cc2c([nH]c3ccccc23)[C@@H](c2c(F)cc(OCCN3CC(CF)C3)cc2F)N1S(C)(=O)=O	%max [6]: 86%; clearance [7]: 27.5 mL/min/kg; Vd [8]: 17.3 L/kg; Papp B→A [9]: 4 ×10⁻⁶ cm/s; Papp A→B (in vitro): 4 ×10⁻⁶ cm/s; IC50 (MCF7 [10]): 0.5 nM; bioavailability [11]: 47%; half-life [12]: 7 h
53 (≈ 25 µg/mL)	91	–	2.5	CC(=O)N1[C@H](c2c(F)cc(OCCN3CC(CF)C3)cc2F)c2[nH]c3ccccc3c2C[C@H]1C	–
95 (≈ 49.2 µg/mL)	94	–	3.2	C[C@@H]1Cc2c([nH]c3ccccc23)[C@@H](c2c(F)cc(OCCN3CC(CF)C3)cc2F)N1C(=O)C(C)(C)F	clearance [7]: 120 mL/min/kg; Vd [8]: 32 L/kg; Papp B→A [9]: 1 ×10⁻⁶ cm/s; Papp A→B (in vitro): 1 ×10⁻⁶ cm/s; bioavailability [11]: 33%; half-life [12]: 3.1 h
30 (≈ 15.6 µg/mL)	95	0.15	–	C[C@@H]1Cc2c([nH]c3ccccc23)[C@@H](c2c(F)cc(OCCN3CC(CF)C3)cc2F)N1C(=O)C(C)(F)F	–
118 (≈ 55.6 µg/mL)	93	0.18	2.2	C[C@@H]1Cc2c([nH]c3ccccc23)[C@@H](c2ccc(OCCN3CC(CF)C3)cc2)N1S(C)(=O)=O	%max [6]: 82%; Activity [14]: Non-Toxic; IC50 (Estrogen receptor [13]): 11 nM; clearance [7]: 7 mL/min/kg; AUC [15]: 1.8 µM·h; Vd [8]: 7.7 L/kg; Papp B→A [9]: 6 ×10⁻⁶ cm/s; Activity (MCF7 [16]): Active; Papp A→B (in vitro): 5 ×10⁻⁶ cm/s; AUC [17]: 28.9 µM·h; IC50 (MCF7 [10]): 0.5 nM; Activity (MCF7 [18]): Dose-Dependent Effect; DC50 (Estrogen receptor [19]): 1.2 nM; bioavailability [11]: 32%; half-life [12]: 13 h
117 (≈ 60.1 µg/mL)	92	4	1.8	C[C@@H]1Cc2c([nH]c3ccccc23)[C@@H](c2c(F)cc(OCCN3CC(CF)C3)cc2F)N1C(=O)C1COC1	–
